How the values were obtained:
[1] = tested on: Macrophage cell line RAW 264.7; conditions: 0.05 μM DPI; RAW 264.7 macrophages co-cultured overnight with wild type, cap1Δ/Δ and CAP1-complemented C. albicans (1:15)
Method: Macrophage cell line RAW 264.7 (ATCC) was used in the assay. The cell line was maintained in DMEM supplemented with 10% fetal bovine serum (FBS). […] Briefly, macrophages on reaching 80-90% confluence were scraped and brought up in DMEM supplemented with 10% FBS and 100 U/ml penicillin and 100 μg/ml streptomycin. 2×10^6 macrophage cells were plated in a 35 mm^2 plate and allowed to adhere for 5 hours. Candida strains were grown overnight at 37° C., diluted 1:10, and allowed to grow for another 5 hours. Candida cells were then washed with supplemented DMEM and were added to the plates containing macrophages in a ratio of 1:15 macrophage and to a final volume of 2 ml. Yeast strain was also grown in parallel without macrophages to calculate % survival. The plates were incubated overnight at 37° C. and 5% CO2. Cells were then brought up to 24 mls in a tube using 0.05% Triton X-100 (v/v) in water to osmotically lyse the macrophage cells. Dilutions were prepared and plated on a YPD plate and grown overnight at 37° C. Colony forming units (CFU) were counted and percentage survival was calculated by taking the ratio of CFU from co culture of Candida and macrophage to the CFU obtained for Candida alone.
Experiments involving diphenyleneiodium chloride (DPI) were performed as mentioned above but with the addition of 0.05 μM DPI from a 31.8 mM stock solution in DMSO. […]

[2] = tested on: C. albicans; conditions: hydrogen peroxide at a final concentration of 2 mM; 20° C., 30° C. and 37° C.
Method: In vitro, Cap1 regulates the response to oxidative stress, which is a key component of the innate immune response to fungi (Alarco et al., J. Bacteriol. 181:700-708.3, 1999); Enjalbert et al., Mol. Biol. Cell. 17:1018-1032, 2006; Wang et al., Free Radic. Biol. Med. 40:1201-1209, 2006; Zhang et al., Mol. Microbiol. 36:618-629, 2000) and is induced in the presence of neutrophils (Fradin et al., Mol. Microbiol. 56:397-415, 2005). To correlate these studies performed at 30° C. and 37° C., respectively, with our in vivo infection performed at 20° C., we compared the ROS sensitivity profiles of cap1Δ/Δ, CAP1-complemented and the cognate wild type strain at 20° C., 30° C. and 37° C.

c1ccc2c(c1)[I+]c1ccccc1-2 [DPI, Diphenyleneiodonium chloride]
CFUs of C. albicans recovered from macrophages [1]: no difference in CFUs recovered from macrophages between the three strains

OO [hydrogen peroxide]
growth of CAP1-complemented strain [2]: same growth as the wild type
growth of reconstructed cap1Δ mutant [2]: failed to grow

Source: US20140041064A1, “COMPOSITIONS AND METHODS FOR I[…] FACTORS AND ANTI-FUNGAL AGENTS” (WORCESTER POLYTECHNIC INSTITUTE, priority 2011, published 2014)
